Experiments:
Format in all cases: functional
MT4 [1] = experiment: Cytotoxic dose required to reduce the viability of normal uninfected MT-4 cells by 50%; settings: Homo sapiens, read-out: CD50 (the source's name)
[2] = system: Human immunodeficiency virus 1; experiment: Effective dose achieving 50% protection of MT-4 cells against the cytopathic effect of HIV; settings: Human immunodeficiency virus 1, MT4; read-out: ED50 (the source's name)
MT4 [3] = experiment: Selectivity index of CD50 to ED50 of MT-4 cells

EC50 [2] [µM]	Structure (SMILES)	CC50 (MT4 [1]) [µM]	Selectivity index (MT4 [3])
> 20	O=c1[nH]c(=O)n([C@H]2C=C[C@@H](CO)O2)cc1Cl	44	<2.2
0.06	O=c1ccn(C2C[C@@H](F)[C@@H](CO)O2)c(=O)[nH]1 (some centres not stated)	1.1	18
26	Nc1nc(=O)n(C2C[C@@H](F)[C@@H](CO)O2)cc1Cl (some centres not stated)	> 1000	>38
16	Nc1ccn(C2C[C@@H](F)[C@@H](CO)O2)c(=O)n1 (some centres not stated)	26	1.6
81	O=c1[nH]c(=O)n(C2CCC(CO)O2)cc1Cl (configuration not stated)	> 500	>6
0.72	[N-]=[N+]=N[C@@H]1CC(n2cc(Cl)c(=O)[nH]c2=O)O[C@@H]1CO (some centres not stated)	213	296
0.43	[N-]=[N+]=N[C@H]1C[C@H](n2ccc(=O)[nH]c2=O)O[C@@H]1CO [NAVURIDINE]	39	90
0.38	O=c1[nH]c(=O)n([C@H]2C[C@H](F)[C@@H](CO)O2)cc1Cl [RALURIDINE]		1408

Second part, the compound before the results:

Structure (SMILES)	EC50 [2] [µM]	CC50 (MT4 [1]) [µM]	Selectivity index (MT4 [3])
[N-]=[N+]=N[C@H]1C[C@H](n2ccc(N)nc2=O)O[C@@H]1CO	7.6	160	21
Nc1ccn([C@H]2C=C[C@@H](CO)O2)c(=O)n1	0.13	7.9	61
Nc1nc(=O)n([C@H]2C=C[C@@H](CO)O2)cc1Cl	22	185	8.4
O=c1ccn(C2CCC(CO)O2)c(=O)[nH]1 (configuration not stated)	210	> 625	>3
Cc1cn(/C=C/C(O)C(O)CO)c(=O)[nH]c1=O (configuration not stated)	475	> 500	>1
O=c1ccn(/C=C/C(O)C(O)CO)c(=O)[nH]1 (configuration not stated)	> 500	> 500	
[N-]=[N+]=N[C@@H]1CC(n2cc(Cl)c(N)nc2=O)O[C@@H]1CO (some centres not stated)	9	877	97
Nc1nc(=O)n(C2CCC(CO)O2)cc1Cl (configuration not stated)	> 500	> 500	
O=c1ccn([C@H]2C=C[C@@H](CO)O2)c(=O)[nH]1	> 20	39	<2
Cc1cn([C@H]2C=C[C@@H](CO)O2)c(=O)[nH]c1=O [STAVUDINE]	0.05	19	380
Nc1ccn([C@H]2CC[C@@H](CO)O2)c(=O)n1 [ZALCITABINE]	0.3	40	120
Cc1cn([C@H]2C[C@H](N=[N+]=[N-])[C@@H](CO)O2)c(=O)[nH]c1=O [ZIDOVUDINE]	0.003	4.81	1603

Reference: ChEMBL document CHEMBL1124810, “Synthesis and anti-HIV evaluation of 2',3'-dideoxyribo-5-chloropyrimidine analogues: reduced toxicity of 5-chlorinated 2',3'-dideoxynucleosides” (1990)
